Experimental data from patent publication US7910751B2, “Heterocyclidene acetamide derivative” (Mochida Pharmaceutical Co., Ltd., priority 2005, dated 2011).

Target: T1, human TRPV1 (Homo sapiens, UniProt Q8NER1)
T1 construct: expressed in transfected cells; host or cells: CHO-K1
Test: Measurement of capsaicin-induced Ca influx in human TRPV1 transformed CHO cell line using FDSS-6000
Assay type: cell-based
Conditions: concentration at which the capsaicin concentration-reaction curve is shifted two times to the right, human TRPV1 transformed CHO cells
From the text: [Measurement of Capsaicin-Induced Ca Influx in Human TRPV1 Transformed CHO Cell Line]
(1) Establishment of Human TRPV1 Transformed CHO Cell Line
Human vanilloid receptor 1 (hTRPV1) cDNA was cloned from a human brain. The cloned hTRPV1 cDNA was incorporated in a pCAGGS vector. The gene of the vector was introduced to a CHO-K1 cell line, thus performing transformation. Clones obtained by limiting dilution were stimulated with capsaicin. Clones with a high responsiveness were selected using an increase in the Ca concentration as an indicator. The selected clones were used for the following experiment.
(2) Measurement of Ca Influx Using FDSS-6000
The human TRPV1 transformed CHO cells were seeded in a 96-well plate (with black walls and transparent bottoms, manufactured by Greiner) at a density of 40,000 cells per well. The cells were cultured at 37° C. in 5% CO2 for one night. A loading solution of FLIPR Calcium 3 assay kit (manufactured by Molecular Devices Corporation) containing 2.5 mmol/L of probenecid was then added to each of the wells in the same amount as the culture medium, and the cells were cultured at 37° C. for 60 minutes. After the cells were stimulated with capsaicin (1 nmol/L to 1 μmol/L), the change in the Ca concentration in the cells was measured using FDSS-6000 (λex: 480 nm, λem: 540 nm, manufactured by Hamamatsu Photonics K.K.) for three minutes. The integrated values of the increase rate of the Ca concentration in the cells were calculated for a group treated with the compounds of the present invention and a group treated with a medium, thus allowing capsaicin concentration-reaction curves to be obtained. A concentration (A2 value) of each of the compounds of the present invention, at which the capsaicin concentration-reaction curve obtained when the cells were treated with the medium was shifted two times to the right side, was calculated. The inhibiting effects of the test compounds were compared using this value as an indicator.
In the case where a compound of the present invention is an agonist, when the cells are treated with the compound of the present invention prior to the capsaicin stimulation, the Ca influx is observed. In Table 1, compounds of the present invention having an A2 value of less than 100 nM are represented by A, and compounds having an A2 value of 100 nM or more are represented by B. When the A2 values of the compounds of the present invention were measured by the above-described method, the compounds have an intensity of 1 μM or less.

T1 sequence (Q8NER1 whole entry): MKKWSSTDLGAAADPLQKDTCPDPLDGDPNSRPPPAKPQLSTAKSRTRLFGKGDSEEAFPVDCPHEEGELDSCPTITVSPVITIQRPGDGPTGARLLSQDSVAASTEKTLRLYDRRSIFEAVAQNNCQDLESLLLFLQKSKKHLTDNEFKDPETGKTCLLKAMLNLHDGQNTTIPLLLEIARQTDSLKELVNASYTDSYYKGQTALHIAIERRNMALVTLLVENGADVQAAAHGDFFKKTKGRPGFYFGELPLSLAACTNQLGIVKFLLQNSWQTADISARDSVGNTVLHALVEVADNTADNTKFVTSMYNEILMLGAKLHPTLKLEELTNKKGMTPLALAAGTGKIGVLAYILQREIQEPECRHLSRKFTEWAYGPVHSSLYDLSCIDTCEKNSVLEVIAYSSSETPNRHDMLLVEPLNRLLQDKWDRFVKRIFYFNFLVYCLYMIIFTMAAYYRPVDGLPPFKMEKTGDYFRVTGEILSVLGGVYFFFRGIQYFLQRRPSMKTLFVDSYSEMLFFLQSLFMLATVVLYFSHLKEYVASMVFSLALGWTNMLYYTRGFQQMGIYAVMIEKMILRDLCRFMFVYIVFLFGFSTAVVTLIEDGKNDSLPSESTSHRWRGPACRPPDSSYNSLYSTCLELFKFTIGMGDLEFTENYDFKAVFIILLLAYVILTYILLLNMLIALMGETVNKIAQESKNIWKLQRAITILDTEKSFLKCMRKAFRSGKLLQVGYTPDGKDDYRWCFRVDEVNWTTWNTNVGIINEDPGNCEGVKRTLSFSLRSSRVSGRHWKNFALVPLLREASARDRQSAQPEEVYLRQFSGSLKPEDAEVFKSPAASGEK

Compound	A2 VALUE
CN1CCC/C(=C\C(=O)Nc2cccc3c2CC(O)CC3)c2ccc(C(F)(F)F)cc21 (centres unmarked) [Example 199, (E)-2-(1-methyl-8-trifluoromethyl-1,2,3,4-tetrahydro-5H-benzo[b]azepin-5-ylidene)-N-(7-hydroxy-5,6,7,8-tetrahydronaphthalen-1-yl)acetamide]	A (compounds of the present invention having an A2 value of less than 100 nM are represented by A)
O=C(/C=C1\CCCOc2cc(C(F)(F)F)ccc21)NCC1COc2ccccc2O1 (centres unmarked) [Example 34, (E)-2-(8-trifluoromethyl-3,4-dihydrobenzo[b]oxepin-5(2H)-ylidene)-N-((2,3-dihydrobenzo[b][1,4]dioxin-2-yl)methyl)acetamide]	B (compounds having an A2 value of 100 nM or more are represented by B)
O=C(/C=C1\CCOc2cc(C(F)(F)F)ccc21)Nc1ccc2cccnc2c1 [Example 8, (E)-2-(7-trifluoromethyl-chroman-4-ylidene)-N-(quinolin-7-yl)acetamide]	A (compounds of the present invention having an A2 value of less than 100 nM are represented by A)
O=C(/C=C1\CCCOc2cc(C(F)(F)F)ccc21)Nc1cccc(N2CCCC2CO)c1 (centres unmarked) [Example 229]	B (compounds having an A2 value of 100 nM or more are represented by B)
O=C(/C=C1\CCCOc2cc(C(F)(F)F)ccc21)Nc1cccc2c1CC(O)C(O)C2 (stereo not drawn) [Example 66, (E)-2-(8-trifluoromethyl-3,4-dihydrobenzo[b]oxepin-5-(2H)-ylidene)-N-(cis-6,7-dihydroxy-5,6,7,8-tetrahydronaphthalen-1-yl)acetamide]	A (compounds of the present invention having an A2 value of less than 100 nM are represented by A)
O=C(/C=C1\CCCOc2cc(C(F)(F)F)ccc21)Nc1ccc2cccnc2c1 [Example 13, (E)-2-(8-trifluoromethyl-3,4-dihydrobenzo[b]oxepin-5(2H)-ylidene)-N-(quinolin-7-yl)acetamide]	A (compounds of the present invention having an A2 value of less than 100 nM are represented by A)
O=C(/C=C1\CCCOc2cc(C(F)(F)F)ccc21)Nc1ccc2c(c1)OCCO2 [Example 9, (E)-2-(8-trifluoromethyl-3,4-dihydrobenzo[b]oxepin-5(2H)-ylidene)-N-(2,3-dihydrobenzo[b][1,4]dioxin-6-yl)acetamide]	A (compounds of the present invention having an A2 value of less than 100 nM are represented by A)
O=C(/C=C1\CCCOc2cc(C(F)(F)F)ccc21)Nc1ccc2c(c1)NC(=O)CC2 [Example 133, (E)-2-(8-trifluoromethyl-3,4-dihydrobenzo[b]oxepin-5(2H)-ylidene)-N-(3,4-dihydro-1H-quinolin-2-on-7-yl)acetamide]	A (compounds of the present invention having an A2 value of less than 100 nM are represented by A)
O=C(/C=C1\CCN(C(=O)c2ccccc2)c2cc(C(F)(F)F)ccc21)Nc1ccc2cccnc2c1 [Example 54, (E)-2-(7-trifluoromethyl-2,3-dihydro-1-benzoylquinolin-4(1H)-ylidene)-N-(quinolin-7-yl)acetamide]	A (compounds of the present invention having an A2 value of less than 100 nM are represented by A)
O=C(/C=C1\CCCOc2cc(C(F)(F)F)ccc21)Nc1ccc2c(c1)OCCCO2 [Example 142, (E)-2-(8-trifluoromethyl-3,4-dihydrobenzo[b]oxepin-5(2H)-ylidene)-N-(3,4-dihydro-2H-benzo[b]dioxepin-7-yl)acetamide]	A (compounds of the present invention having an A2 value of less than 100 nM are represented by A)
O=C(/C=C1\CCCOc2cc(C(F)(F)F)ccc21)Nc1ccc2c(c1)OC(F)(F)O2 [Example 143, (E)-2-(8-trifluoromethyl-3,4-dihydrobenzo[b]oxepin-5(2H)-ylidene)-N-(2,2-difluoro-1,3-benzodioxol-5-yl)acetamide]	B (compounds having an A2 value of 100 nM or more are represented by B)
